Data from patent US7307102B2, “Method of preventing or treating estrogen-dependent diseases and disorders” (Duke University, priority 1997, dated 2007).

Legend:
[1] = biological target: T1, wild-type human estrogen receptor (ERwt) (Homo sapiens, UniProt P03372); test: C3 promoter-luciferase cotransfection assay in HepG2 cells, ERwt; assay type: cell-based
T1 construct: expressed in transfected cells; host or cells: HepG2
T1 sequence (P03372 1-595): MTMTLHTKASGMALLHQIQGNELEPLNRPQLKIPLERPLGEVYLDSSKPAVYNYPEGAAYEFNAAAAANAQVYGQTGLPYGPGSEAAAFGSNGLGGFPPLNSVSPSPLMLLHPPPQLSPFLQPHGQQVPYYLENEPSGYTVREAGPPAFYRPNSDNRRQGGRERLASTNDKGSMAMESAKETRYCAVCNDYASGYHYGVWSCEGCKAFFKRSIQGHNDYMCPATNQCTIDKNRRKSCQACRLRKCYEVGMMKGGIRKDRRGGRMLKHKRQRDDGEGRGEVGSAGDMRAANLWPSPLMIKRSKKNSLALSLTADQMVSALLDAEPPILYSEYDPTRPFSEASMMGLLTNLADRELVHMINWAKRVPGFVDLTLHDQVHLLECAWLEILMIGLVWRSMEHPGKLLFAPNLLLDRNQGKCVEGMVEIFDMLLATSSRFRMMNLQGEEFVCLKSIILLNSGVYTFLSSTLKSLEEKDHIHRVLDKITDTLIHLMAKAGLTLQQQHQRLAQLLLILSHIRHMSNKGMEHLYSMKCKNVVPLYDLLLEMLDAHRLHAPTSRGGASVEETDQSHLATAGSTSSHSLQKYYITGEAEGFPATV
Source text: (§1) FIGS. 1A and 1B. […] The human C3 promoter (−1807 to +58) fused to the firefly luciferase reporter gene was transfected along with an expression plasmid containing (FIG. 1A) the wild-type human estrogen receptor (ERwt), or (FIG. 1B) a mutated ER in which the AF-2 function had been disrupted (ER-TAFl) into HepG2 cells and tested for transcriptional activation in the presence of increasing concentrations of ER-modulator as indicated. Transfections were normalized for efficiency and cell number by cotransfecting an expression plasmid containing β-galactosidase. The normalized response was obtained by dividing light units by the activity of β-galactosidase as measured in an enzymatic assay. Triplicate transfections were performed. The data shown are representative of multiple experiments performed under similar conditions.
(§2) FIGS. 2A-2C. […] FIG. 2A. […] FIG. 2B. […] FIG. 2C. […] Transfections were normalized for efficiency and cell number by cotransfecting an expression plasmid containing β-galactosidase. The normalized response was obtained by dividing light units by the activity of β-galactosidase as measured in an enzymatic assay. Representative assays are shown in which triplicate transfections were performed. Error bars represent the standard error of the mean (SEM).
(§3) HepG2 cells were maintained in Modified Eagles Medium (MEM) (Life Technologies, Grand Island, N.Y.) plus 10% Fetal Calf Serum (FCS) (Life Technologies). Cells were plated in 24 well plates (coated with gelatin) 24 hours prior to transfection. DNA was introduced into the cells using Lipofectin (Life Technologies). Briefly, triplicate transfections were performed using 3 μg of total DNA. For standard transfections, 500 ng of pCMV-β-Gal (normalization vector), 1500 ng reporter (variable) and 1000 ng receptor (pRST7-hER (Dana et al, Mol. Endocrinol. 8:1193-1207 (1994)) were used for each triplicate. Incubation of the cells with Lipofectin proceeded for 3 hrs, at which time media was removed, cells were washed with PBS and then induced with the appropriate hormone diluted in phenol red-free media containing 10% charcoal stripped CS (Cyclone Inc.). Incubation with hormone continued for 48 hrs, after which cells were lysed and assayed for luciferase and β-galactosidase activity as previously described (Norris et al, JBC 270:22777-22782 (1995)).
(§4) A series of in vitro screens have been developed that permit the classification of ER-modulators into four mechanistically distinct groups (Tzukerman et al, Mol. Endocrinol. 8:21-30 (1994)). […] Using these assays, it has been possible to derive “fingerprints” of known ER-modulators (McDonnell et al, Mol. Endocrinol. 9:659-669 (1995)).
(§5) Subsequently, the transfected cells were assayed for luceriferase and β-galactosidase activity. Each data point in this experiment represents the average of triplicate determinations of the transcriptional activity under given experimental conditions.

ER-TAF1 = test: C3 promoter-luciferase cotransfection assay in HepG2 cells, ER-TAF1 (AF-2 disrupted); assay type: cell-based, human; conditions: for agonist activity on ER-TAF1: ER-TAF1, compound alone, FIG. 1B
Source text: as §1, §2, §3, §4, §5

ER-VP16 = ER-VP16 reporter of nuclear localization and DNA binding status of ER; assay type: cell-based
Source text: This was addressed using a modified ER (ER-VP16) to report on the nuclear localization and the DNA binding status of ER within a cell following ligand binding. This modified protein behaves exactly like ER in all respects except it activates transcription upon interaction with an estrogen response element (ERE) independent of the nature of the bound ligand (McDonnell et al, Mol. Endocrinol. 9:659-669 (1995)).

human ER = biological target: T2, human ER (Homo sapiens, UniProt P03372); assay type: cell-based; conditions: MCF-7 cells, in the presence of 17-β-estradiol, 48 h, FIG. 12
T2 construct: expressed in transfected cells; host or cells: MCF-7

ERα = biological target: T3, ERα (Homo sapiens, UniProt P03372); assay type: cell-based; conditions: HeLa cells, estradiol (10^−9), FIG. 14A
T3 construct: expressed in transfected cells; host or cells: HeLa
Source text: (§6) HeLa cells were transfected with either an ERα expression vector (see FIG. 14A) or an ERβ expression vector (see FIG. 14B) together with an estrogen responsive ERE-TK-luceriferase reporter construct.

ERβ = ERβ (Homo sapiens, UniProt Q92731); conditions: HeLa cells, estradiol (10^−9), FIG. 14B
ERβ, sequence (Q92731 whole entry): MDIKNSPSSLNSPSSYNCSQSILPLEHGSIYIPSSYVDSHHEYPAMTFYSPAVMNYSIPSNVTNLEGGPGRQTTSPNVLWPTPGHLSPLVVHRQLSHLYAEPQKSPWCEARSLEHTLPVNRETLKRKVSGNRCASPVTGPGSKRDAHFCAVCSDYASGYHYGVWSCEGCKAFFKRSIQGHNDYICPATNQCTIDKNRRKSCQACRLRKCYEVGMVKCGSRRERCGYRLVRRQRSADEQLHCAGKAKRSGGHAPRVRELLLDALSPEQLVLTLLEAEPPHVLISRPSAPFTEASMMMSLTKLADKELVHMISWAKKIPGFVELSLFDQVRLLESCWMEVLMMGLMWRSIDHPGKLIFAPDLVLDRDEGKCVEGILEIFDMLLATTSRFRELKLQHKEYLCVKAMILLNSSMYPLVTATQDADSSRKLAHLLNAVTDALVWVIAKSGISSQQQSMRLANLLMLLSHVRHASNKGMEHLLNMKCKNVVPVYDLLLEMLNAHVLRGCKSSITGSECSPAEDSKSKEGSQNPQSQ
Source text: as §6

MCF-7 cells = test: [3H]-thymidine incorporation, E2 stimulated MCF-7 cell proliferation; assay type: cell-based, human; conditions: FIG. 19
Experimental: Experimental Design: Plate between 25,000 and 50,000 cells per well onto 24-well plates. Cells are plated in phenol red-free media. After attachment, cells are stimulated with either antiestrogen alone or estrogen and antiestrogen. Induction time ranges from 12-48 hours, depending on experiment.
Add 4λ (4 μCi) thymidine, [methyl-^3H]-to each well.
Incubate at 37° C. for 2-4 hours.
Aspirate media and wash twice with ice cold PBS.
Wash once with ice cold 10% TCA (trichloroacetic acid).
Add 2 mL 10% TCA to each well.
Incubate at 4° C. for 1-2 hours.
Transfer each well to scintillation vial containing 2 mL scintillation fluid.

[2] = Bone mineral density in ovariectomized rats (DEXA, pQCT); assay type: in vivo, rat; conditions: 90-day old OVX rats, oral, 28 days, FIG. 3A
Experimental: FIGS. 3A and 3B. […] FIG. 3A. […] FIG. 3B.
Animal preparation. […] At sacrifice, animals were euthanized with C02, body weights were recorded and the uteri were removed and weighed. Uterus, vagina and mammary tissue were fixed in 10% neutral buffered formalin. Samples for histologic processing were taken from the mid-point of each uterine horn. Tissue samples were embedded in paraffin, stained with haematoxylin and eosin and evaluated microscopically. Lumbar vertebrae and both left and right tibiae were excised. Total blood cholesterol was measured (Roche Biomedical Laboratories).

[3] = Uterotrophic assay in immature rats; conditions: 21 day old immature rats, oral
Experimental: FIG. 5. […] The data shown represent the mean value (±SEM).
Twenty-one day old female Sprague-Dawley rats (30-35 gms) were obtained from Harlan or Taconic Laboratories. Animals were sorted randomly into treatment groups of five, and average weights were recorded for each treatment group. Weights were recorded on each treatment day. […] On day of dosing, drug was diluted in 0.5% methyl cellulose, viscosity of 2% at 25° C.:400 centipoises (Sigma, St. Louis, Mo.)). Oral dosing by gavage was based on a total volume of 10 ml/kg body weight. […] Subcutaneous dosing was based on a total of 2 ml/kg body weight. […] On day 4, animals were sacrificed by C02 asphyxiation, body weights were obtained and uteri were removed, blotted and weighed. Data were expressed as uterine weight/body weight.
In this assay, uterine wet weight was used as a measure of ER-agonist activity in this tissue (FIG. 5).

MCF-7/LCC2 = test: LCC2 study, MCF-7/LCC2 tumors in nude mice; assay type: in vivo, mouse; conditions: after 8 weeks, 1.0 mg every three days, FIG. 11
Experimental: This experiment was conducted to determine the ability of GW5638 to retard the growth of this cell line in nude mice relative to control or tamoxifen treated tumors.
40 OVX mice were prepared to accept cells and grouped as follows:
Control animals received nothing and groups 3 and 4 received 0.1 ml injections in corn oil every three days. Tumors were measured Q3 days with calipers, and the area calculated as follows: Area=½×w/2×π.

With CC/C(=C(\c1ccc(O)cc1)c1ccc(/C=C/C(=O)O)cc1)c1ccccc1 [GW7604] as the compound, how does the “reversal of the inverse agonist activity of ICI182,780” value ([1]; C3 promoter, co-addition with ICI182,780, FIG. 2C) read?
Its value is “completely reversed”.

And the “inhibition of the agonist activity manifested by tamoxifen or estradiol” value ([1]; ERwt, 10^−8M 17-β-estradiol or tamoxifen, FIG. 2A)?
The value was “inhibited”.

And the “agonist / inverse agonist activity on the C3 promoter” value ([1]; ERwt, compound alone, FIG. 1A/2A)?
Its value is “do not demonstrate any agonist or antagonist activity”.

What about the “inhibition of the partial agonist activity of raloxifene on ER-TAF1” value (ER-TAF1; ER-TAF1) of the same compound?
The value was “inhibited”.

What about the “inhibition of estradiol- and tamoxifen-induced ER-TAF1 transcriptional activity” value (ER-TAF1; ER-TAF1, FIG. 2B) of the same compound?
Its value is “capable of inhibiting”.

What about the “agonist activity on ER-TAF1” value (ER-TAF1) of the same compound?
Its value is “functionally inactive”.

What about the “agonist activity on ER mutants” value (ER-TAF1; any ER-mutant examined, FIG. 13) of the same compound?
Its value is “does not exhibit agonist activity”.

What about the “interaction of ER with target DNA” value (ER-VP16) of the same compound?
Its value is “facilitate efficient interactions of ER with target DNA”.

And the “antiestrogen activity on C3-Luc transcription” value (human ER)?
Its value is “Functions as an Antiestrogen”.

And the “inhibition of estradiol activated transcription, ERα” value (ERα)?
Its value is “potent pan-antagonist of both forms of the human estrogen receptor”.

And the “inhibition of estradiol activated transcription, ERβ” value (ERβ)?
Its value is “potent pan-antagonist of both forms of the human estrogen receptor”.

What about the “E2 stimulated MCF-7 cell proliferation” value (MCF-7 cells) of the same compound?
The value was “Inhibits E2 Stimulated MCF-7 Cell Proliferation”.

Which “agonist activity on ER-TAF1” value (ER-TAF1) does the source give for C[C@]12CC[C@@H]3c4ccc(O)cc4C[C@@H](CCCCCCCCC[S+]([O-])CCCC(F)(F)C(F)(F)F)[C@H]3[C@@H]1CC[C@@H]2O (stereo partly drawn) [ICI182,780, reference compound] here?
Its value is “functionally inactive”.

What about the “interaction of ER with target DNA” value (ER-VP16) of the same compound?
Its value is “facilitate efficient interactions of ER with target DNA”.

Which “bone mineral density, lumbar spine” value [2] does the source give for C[C@]12CC[C@@H]3c4ccc(O)cc4CC[C@H]3[C@@H]1CC[C@@H]2O [estradiol, 17β-estradiol, reference compound] here?
The value was “BMD was maintained”.

Which “inhibition of estradiol activated transcription, ERβ” value (ERβ) does the source give for O=C(c1ccc(OCCN2CCCCC2)cc1)c1c(-c2ccc(O)cc2)sc2cc(O)ccc12 [raloxifene, reference compound] here?
The value was “neither raloxifene nor idoxifene manifest potent antagonist activity”.

Which results are given for CC/C(=C(\c1ccccc1)c1ccc(OCCN(C)C)cc1)c1ccccc1 [tamoxifen, reference compound]?
lowest dose with uterotrophic activity [3]: 0.1 µmol/kg/day; tumor growth (MCF-7/LCC2): equally inhibit growth of this tumor
